The subject of this experiment is rats. The experiment can be described thus: Forced Swimming Test (Depression Test Model). The class given is in vivo. Particulars: delivered orally before swim test, all three doses 0.3, 3 and 30 mg/kg, observed for 6 minutes. From the text:
Forced Swimming Test (Depression Test Model)—Total immobility time of rats can be assessed during a forced swimming test Porsolt, R. D., Anton, G., Blavet, N., Jalfre, M. Behavioral despair in rats, a new model sensitive to antidepressant treatments. Eur. J Pharmacol. 1978, 47, 379-391. A shortened immobility period reflects anti-depressant-like effects of a test compound. MQT compounds were delivered orally to rats before the swim test.

In the case of `NCCCNCC1CCCN(CC2Cc3c([nH]c4ccccc34)CN2)C1` (centres unmarked) [MQT 2], the “Total immobility time during forced swimming test” value is reported as “reduction in immobility”.
On to `NCCCNC(=O)C1CCCN(C(=O)C2Cc3c([nH]c4ccccc34)CN2)C1` (centres unmarked) [MQT 1], for which the “Total immobility time during forced swimming test” value is recorded as “reduction in immobility”.

Values taken from patent publication US7232831B2, “Tetrahydro-β-carboline compounds and use thereof” (MediQuest Therapeutics, Inc., priority 2004, dated 2007).
